Experimental data from US20250171463A1 (BIOGEN MA INC., priority 2022, published 2025).

biological target: T1, EBP (Homo sapiens, UniProt Q15125); experiment: EBP Functional Assay (EBP immunoaffinity LC-MS assay); assay type: biochemical; details: EBP enzyme from HEK293T cells; 30 min with inhibitor, then zymosterol-d5, 37° C., 4 h; percent conversion to dehydrolathosterol-d5 by LC-APCI MRM MS
T1 construct: HEK293T cells were utilized as the source of EBP enzyme; endogenous in cells; host or cells: HEK293T
T1 sequence (Q15125 whole entry): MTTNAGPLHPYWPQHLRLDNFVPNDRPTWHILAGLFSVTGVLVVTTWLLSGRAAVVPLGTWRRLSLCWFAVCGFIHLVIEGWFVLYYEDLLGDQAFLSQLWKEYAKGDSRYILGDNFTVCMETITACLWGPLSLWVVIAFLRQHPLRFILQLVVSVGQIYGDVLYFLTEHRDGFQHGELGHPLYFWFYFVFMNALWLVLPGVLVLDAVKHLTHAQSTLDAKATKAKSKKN
Method in brief: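 HEK293T cells served as EBP source; enzyme preincubated 30 min with inhibitor dilutions, then zymosterol-d5 substrate added and incubated 4 h at 37° C. Sterols extracted and quantified by LC-APCI MRM MS; percent conversion to […] fit to 4-parameter logistic for IC50. Tasin-1 reference inhibitor.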

Compared with `O=S(=O)(c1cnc(C2CC2)s1)N1CCOC2(CCN(C3CC4(COC4)C3)C2)C1` (stereo not drawn) [Example 24, 9-((2-Cyclopropylthiazol-5-yl)sulfonyl)-2-(2-oxaspiro[3.3]heptan-6-yl)-6-oxa-2,9-diazaspiro[4.5]decane], `O=S(=O)(c1cnc(C2CC2)s1)N1CCOC2(CN(C3CCOCC3)C2)C1` [Example 22, 8-((2-Cyclopropylthiazol-5-yl)sulfonyl)-2-(tetrahydro-2H-pyran-4-yl)-5-oxa-2,8-diazaspiro[3.5]nonane] is higher in IC50: 100 to 250 nM for the first, 250 to 4000 nM for the second.

First: Cc1nc(C(C)(F)F)ccc1S(=O)(=O)N1CC2(CN(C(C)C3COC3)C2)C1 (stereo not drawn) [Example 88]
Second: Cc1nc(C(C)(C)F)ccc1S(=O)(=O)N1CC2(CN(C3CC4(COC4)C3)C2)C1 [Example 92, 2-((6-(2-fluoropropan-2-yl)-2-methylpyridin-3-yl)sulfonyl)-6-(2-oxaspiro[3.3]heptan-6-yl)-2,6-diazaspiro[3.3]heptane]
The IC50 of the first is higher: 100 to 250 nM for the first, under 100 nM for the second. The second is the more potent here.

First: Cn1nc(C(F)(F)F)cc1S(=O)(=O)N1CC2(CN(CC3CCOC3)C2)C1 (racemic) [Example 197, rac-2-((1-Methyl-3-(trifluoromethyl)-1H-pyrazol-5-yl)sulfonyl)-6-((tetrahydrofuran-3-yl)methyl)-2,6-diazaspiro[3.3]heptane]
Second: Cn1nc(C(F)(F)F)cc1S(=O)(=O)N1CC2(CN(CC3COC3)C2)C1 [Example 218, 2-((1-methyl-3-(trifluoromethyl)-1H-pyrazol-5-yl)sulfonyl)-6-(oxetan-3-ylmethyl)-2,6-diazaspiro[3.3]heptane]
The IC50 of the first is lower: under 100 nM for the first, 100 to 250 nM for the second. The first is the more potent here.

`C=Cc1nc(C(F)(F)F)ccc1S(=O)(=O)N1CC2(CN(C3CCOCC3)C2)C1` [Example 203, 2-(tetrahydro-2H-pyran-4-yl)-6-((6-(trifluoromethyl)-2-vinylpyridin-3-yl)sulfonyl)-2,6-diazaspiro[3.3]heptane] and `O=S(=O)(c1ccc(C(F)(F)F)nc1Cl)N1CC2(CN(C3CCOCC3)C2)C1` [Example 192, 2-((2-chloro-6-(trifluoromethyl)pyridin-3-yl)sulfonyl)-6-(tetrahydro-2H-pyran-4-yl)-2,6-diazaspiro[3.3]heptane] cannot be ordered by IC50: under 100 nM for the first, under 100 nM for the second.

First: O=S(=O)(c1ccc(OC(F)F)cc1)N1CCO[C@]2(CCN(C3CC4(COC4)C3)C2)C1 (single isomer, unassigned) [Example 27]
Second: O=S(=O)(c1ccc(OC(F)F)cc1)N1CCOC2(CCN(C3CC4(COC4)C3)C2)C1 (racemic) [Example 25, 9-((4-(Difluoromethoxy)phenyl)sulfonyl)-2-(2-oxaspiro[3.3]heptan-6-yl)-6-oxa-2,9-diazaspiro[4.5]decane]
The IC50 of the first is higher: 100 to 250 nM for the first, under 100 nM for the second. The second is the more potent here.

First: O=S(=O)(c1ccc(OC(F)F)cc1F)N1CC2(CN(C3CCOCC3)C2)C1 [Example 227, 2-((4-(difluoromethoxy)-2-fluorophenyl)sulfonyl)-6-(tetrahydro-2H-pyran-4-yl)-2,6-diazaspiro[3.3]heptane]
Second: O=S(=O)(c1ccc(OC(F)(F)F)cc1F)N1CC2(CN(CC3CCOCC3)C2)C1 [Example 220, 2-((2-fluoro-4-(trifluoromethoxy)phenyl)sulfonyl)-6-((tetrahydro-2H-pyran-4-yl)methyl)-2,6-diazaspiro[3.3]heptane]
The IC50 of the first is lower: 100 to 250 nM for the first, 250 to 4000 nM for the second.

First: Cc1nc(C(F)(F)F)ccc1S(=O)(=O)N1CC2(CN(C3CCC(C)(O)CC3)C2)C1 (stereo not drawn) [Example 223, 1-methyl-4-(6-((2-methyl-6-(trifluoromethyl)pyridin-3-yl)sulfonyl)-2,6-diazaspiro[3.3]heptan-2-yl)cyclohexan-1-ol]
Second: Cc1nc(C(F)(F)F)ccc1S(=O)(=O)N1CC2(CN(C3CCC(F)(F)CC3)C2)C1 [Example 150]
The IC50 of the first is higher: 250 to 4000 nM for the first, under 100 nM for the second.

`O=S(=O)(c1ccc(C(F)F)nc1C1CC1)N1CC2(CN(C3CCOCC3)C2)C1` [Example 116, 2-((2-cyclopropyl-6-(difluoromethyl)pyridin-3-yl)sulfonyl)-6-(tetrahydro-2H-pyran-4-yl)-2,6-diazaspiro[3.3]heptane] and `O=S(=O)(c1ccc(C2CC2)nc1C(F)(F)F)N1CC2(CN(C3CCOCC3)C2)C1` [Example 107, 2-((6-cyclopropyl-2-(trifluoromethyl)pyridin-3-yl)sulfonyl)-6-(tetrahydro-2H-pyran-4-yl)-2,6-diazaspiro[3.3]heptane] cannot be ordered by IC50: under 100 nM for the first, under 100 nM for the second.

`Cn1nc(C2CC2)cc1S(=O)(=O)N1CC2(CCN(C3CCOCC3)C2)C1` [Example 59] and `Cn1nc(C(F)F)cc1S(=O)(=O)N1CC2(CN(C3CCOCC3)C2)C1` [Example 96, 2-((3-(difluoromethyl)-1-methyl-1H-pyrazol-5-yl)sulfonyl)-6-(tetrahydro-2H-pyran-4-yl)-2,6-diazaspiro[3.3]heptane] fall in the same range of IC50: 100 to 250 nM for the first, 100 to 250 nM for the second.

First: O=S(=O)(c1ccc(OC(F)F)cc1)N1CCC2(CC1)CN(C1CCOCC1)CCO2 [Example 30, 9-((4-(Difluoromethoxy)phenyl)sulfonyl)-4-(tetrahydro-2H-pyran-4-yl)-1-oxa-4,9-diazaspiro[5.5]undecane]
Second: COCCN1CCC2(CC1)CN(S(=O)(=O)c1ccc(OC(F)F)cc1)CCO2 [Example 7, 4-((4-(Difluoromethoxy)phenyl)sulfonyl)-9-(2-methoxyethyl)-1-oxa-4,9-diazaspiro[5.5]undecane]
The IC50 of the first is lower: 100 to 250 nM for the first, 250 to 4000 nM for the second.

First: Cc1cc(C(F)(F)F)cnc1S(=O)(=O)N1CC2(CN(CC3CCOCC3)C2)C1 [Example 224, 2-((3-methyl-5-(trifluoromethyl)pyridin-2-yl)sulfonyl)-6-((tetrahydro-2H-pyran-4-yl)methyl)-2,6-diazaspiro[3.3]heptane]
Second: Cn1nc(C(F)(F)F)cc1S(=O)(=O)N1CC2(CN(CC3CCOCC3)C2)C1 [Example 202, 2-((1-methyl-3-(trifluoromethyl)-1H-pyrazol-5-yl)sulfonyl)-6-((tetrahydro-2H-pyran-4-yl)methyl)-2,6-diazaspiro[3.3]heptane]
The IC50 of the first is higher: 250 to 4000 nM for the first, under 100 nM for the second.

First: O=S(=O)(c1cc(F)cc(F)c1)N1CCO[C@@]2(CCN(C3CCOCC3)C2)C1 (single isomer, unassigned) [Example 15]
Second: Cn1nc(C(F)(F)F)cc1S(=O)(=O)N1CCC2(CCN(C3CCOCC3)C2)CC1 [Example 40]
The IC50 of the first is higher: 100 to 250 nM for the first, under 100 nM for the second. The second is the more potent here.

First: CC1(O)CCC(N2CC3(C2)CN(S(=O)(=O)c2ccc(C(F)(F)F)nc2C2CC2)C3)CC1 (stereo not drawn) [Example 196, 4-(6-((2-cyclopropyl-6-(trifluoromethyl)pyridin-3-yl)sulfonyl)-2,6-diazaspiro[3.3]heptan-2-yl)-1-methylcyclohexan-1-ol]
Second: O=S(=O)(c1ccc(C(F)(F)F)nc1C1CC1)N1CC2(CN(CC3CCOCC3)C2)C1 [Example 190, 2-((2-cyclopropyl-6-(trifluoromethyl)pyridin-3-yl)sulfonyl)-6-((tetrahydro-2H-pyran-4-yl)methyl)-2,6-diazaspiro[3.3]heptane]
The IC50 of the first is higher: 100 to 250 nM for the first, under 100 nM for the second. The second is the more potent here.

`O=S(=O)(c1ccc(C(F)(F)F)cc1C(F)(F)F)N1CC2(CN(CC3CCOCC3)C2)C1` [Example 211, 2-((2,4-bis(trifluoromethyl)phenyl)sulfonyl)-6-((tetrahydro-2H-pyran-4-yl)methyl)-2,6-diazaspiro[3.3]heptane] and `O=S(=O)(c1ccc(Cl)nc1C(F)(F)F)N1CC2(CN(C3CCOCC3)C2)C1` [Example 213, 2-((6-chloro-2-(trifluoromethyl)pyridin-3-yl)sulfonyl)-6-(tetrahydro-2H-pyran-4-yl)-2,6-diazaspiro[3.3]heptane] fall in the same range of IC50: 100 to 250 nM for the first, 100 to 250 nM for the second.

First: O=S(=O)(c1cnc(Cl)c(C(F)(F)F)c1)N1CC2(CN(C3CCOCC3)C2)C1 [Example 165, 2-((6-chloro-5-(trifluoromethyl)pyridin-3-yl)sulfonyl)-6-(tetrahydro-2H-pyran-4-yl)-2,6-diazaspiro[3.3]heptane]
Second: Cc1cc(C(F)(F)F)ncc1S(=O)(=O)N1CC2(CN(C3CCOCC3)C2)C1 [Example 48]
The IC50 of the first is higher: 250 to 4000 nM for the first, 100 to 250 nM for the second.

`Cn1nc(C(F)(F)F)cc1S(=O)(=O)N1CC2(CN(CC3(C)CCOCC3)C2)C1` [Example 72, 2-((1-methyl-3-(trifluoromethyl)-1H-pyrazol-5-yl)sulfonyl)-6-((4-methyltetrahydro-2H-pyran-4-yl)methyl)-2,6-diazaspiro[3.3]heptane] and `COCCC1(CN2CC3(C2)CN(S(=O)(=O)c2ccc(C(F)(F)F)nc2C)C3)CCC1` [Example 181] fall in the same range of IC50: 100 to 250 nM for the first, 100 to 250 nM for the second.

`Cc1nc(C(F)(F)F)ccc1S(=O)(=O)N1CC2(CN(C[C@@H]3CC[C@H]4C[C@H]3CO4)C2)C1` (racemic) [Example 175] and `Cc1nc(C(F)(F)F)ccc1S(=O)(=O)N1CC2(CN(CCC3CC3)C2)C1` [Example 184] cannot be ordered by IC50: under 100 nM for the first, under 100 nM for the second.

First: CCc1nc(C(F)F)ccc1S(=O)(=O)N1CC2(C1)CN([C@H]1CC[C@](C)(O)CC1)C2 [Example 207, (1r,4r)-4-(6-((6-(difluoromethyl)-2-ethylpyridin-3-yl)sulfonyl)-2,6-diazaspiro[3.3]heptan-2-yl)-1-methylcyclohexan-1-ol]
Second: CCc1nc(C(F)F)ccc1S(=O)(=O)N1CC2(CN(C3CCC(C)(O)CC3)C2)C1 (stereo not drawn) [Example 208, (1s,4s)-4-(6-((6-(difluoromethyl)-2-ethylpyridin-3-yl)sulfonyl)-2,6-diazaspiro[3.3]heptan-2-yl)-1-methylcyclohexan-1-ol]
The IC50 of the first is higher: 250 to 4000 nM for the first, 100 to 250 nM for the second. The second is the more potent here.

`Cc1nc(OC(F)F)ccc1S(=O)(=O)N1CC2(CN(C3CC4(COC4)C3)C2)C1` [Example 95, 2-((6-(difluoromethoxy)-2-methylpyridin-3-yl)sulfonyl)-6-(2-oxaspiro[3.3]heptan-6-yl)-2,6-diazaspiro[3.3]heptane] and `Cc1nc(C(F)(F)F)ccc1S(=O)(=O)N1CC2(CN(CC3CC4(COC4)C3)C2)C1` [Example 113] fall in the same range of IC50: 100 to 250 nM for the first, 100 to 250 nM for the second.

`CC1(O)CCC(N2CC3(C2)CN(S(=O)(=O)c2ccc(C(F)(F)F)nc2C2CC2)C3)CC1` (stereo not drawn) [Example 195, 4-(6-((2-cyclopropyl-6-(trifluoromethyl)pyridin-3-yl)sulfonyl)-2,6-diazaspiro[3.3]heptan-2-yl)-1-methylcyclohexan-1-ol] gave an IC50 of under 100 nM.
